One data set deals with mice. The data set can be described thus: PCP-induced immobility test in mice. Type of data set: in vivo. Particulars: 20 mg/kg (i.g.), PCP-treated mice; PCP group 78.1±28 s, P<0.05. The method, then: 3. PCP-Induced Immobility Test in Mice
Phencyclidine(PCP)-induced immobility test in mice was selected as the model to evaluate the antipsychotic effect of some compounds of the present invention (Br J Pharmacol, 1995, 116: 2531-2537). The dose is selected according the ED50 of l-CSLMS. Given PCP, immobility times of mice was increased, whereas the active compound can decrease the immobility time. At 20 mg/kg (i.g.), the immobility time of compound of example 47 is 54.9±19 s, and the immobility time of l-CSLMS is 48.0±27 s, which has statistically significant differences (P<0.05) compared to PCP group (78.1±28 s).

In the next data set the target is dopamine D2 receptor (Homo sapiens, UniProt P14416). The data set can be described thus: Dopamine receptor competitive binding, D2. Particulars: for Ki: calculated from the inhibition data; for inhibition at 10 µM / Inhibition(%) for D2: tested at 1 × 10^−5 mol/L. The method, then:
(§1) 1. Dopamine Receptor Binding Studies
The affinities of these compounds on dopamine receptors were evaluated with competitive receptor binding assays (Acta Pharmacol Sin, 1989, 10:104 and Acta Pharmacol Sin, 2003, 24(3): 225-229). The Ki is calculated according the inhibition data tested.

The target in a further data set is dopamine D1 receptor (Homo sapiens, UniProt P21728). In words: Dopamine receptor competitive binding, D1. The settings on record: for Ki: calculated from the inhibition data; for inhibition at 10 µM / Inhibition(%) for D1: tested at 1 × 10^−5 mol/L. The method, then: as §1
The Ki is calculated according the inhibition data tested.

The conditions of data set [1]: preliminary clinic studies, cited from earlier work.
The next data set has as its system 6-OHDA-lesioned rats. In words: 6-OHDA-lesioned rats rotation test. Particulars: 10 mg/kg. It is filed as in vivo. On the procedure:
2. 6-OHDA-Lesioned Rats Rotation Test
Some of the compounds were evaluated on 6-OHDA-lesioned rats model.

Each structure is given as a SMILES string. Where a name gives a salt, the structure may show the parent alone.

Sequence of dopamine D2 receptor (P14416 whole entry, species assumed): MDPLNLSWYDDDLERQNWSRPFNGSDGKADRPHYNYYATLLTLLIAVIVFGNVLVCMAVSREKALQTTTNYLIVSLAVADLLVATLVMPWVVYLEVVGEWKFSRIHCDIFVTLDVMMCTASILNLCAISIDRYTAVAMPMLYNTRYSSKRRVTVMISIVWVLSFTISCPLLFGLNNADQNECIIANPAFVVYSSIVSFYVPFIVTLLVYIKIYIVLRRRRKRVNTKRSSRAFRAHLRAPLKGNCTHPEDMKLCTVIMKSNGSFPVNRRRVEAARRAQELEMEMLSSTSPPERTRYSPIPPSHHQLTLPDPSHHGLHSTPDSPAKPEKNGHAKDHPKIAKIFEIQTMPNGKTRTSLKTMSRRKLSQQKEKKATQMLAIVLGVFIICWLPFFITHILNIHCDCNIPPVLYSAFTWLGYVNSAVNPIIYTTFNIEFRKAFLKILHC
Sequence of dopamine D1 receptor (P21728 whole entry): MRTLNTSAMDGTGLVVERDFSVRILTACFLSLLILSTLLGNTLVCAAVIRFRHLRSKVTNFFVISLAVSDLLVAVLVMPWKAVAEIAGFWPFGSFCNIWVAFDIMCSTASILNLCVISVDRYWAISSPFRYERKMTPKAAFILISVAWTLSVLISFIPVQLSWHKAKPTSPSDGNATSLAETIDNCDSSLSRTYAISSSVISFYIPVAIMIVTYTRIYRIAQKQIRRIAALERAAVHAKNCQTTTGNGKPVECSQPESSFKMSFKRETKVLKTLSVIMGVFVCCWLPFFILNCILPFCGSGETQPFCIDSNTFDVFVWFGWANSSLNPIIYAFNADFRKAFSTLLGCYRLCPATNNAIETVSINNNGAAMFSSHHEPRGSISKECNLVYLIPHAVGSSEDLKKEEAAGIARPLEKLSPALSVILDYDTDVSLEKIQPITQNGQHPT

Usually Ki stands for a dissociation constant, usually derived from enzyme kinetics or from competition with a known ligand. `COc1cc2c(cc1O)[C@@H]1Cc3c(Cl)cc(OC)c(O)c3CN1CC2` [l-CSLMS, S-chloroscoulerine mesylate, reference compound] showed an immobility time in the data set on mice of 48.0 ± 27 s. Also, at dopamine D2 receptor, the inhibition constant (Ki) is 1700 ± 500 nM.

For `COc1cc2c(cc1O)C1Cc3c(Cl)cc(OC)c(O)c3CN1CC2` (stereo not drawn) [CSL, 2,9-dihydroxy-3,10-dimethoxy-12-chloro-5,8,13,13a-tetrahydro-6H-dibenzo[a,g]quinolizine, reference compound], the inhibition constant (Ki) on dopamine D1 receptor is 6.1 ± 3 nM.

Regarding `COc1cc2c(cc1O)[C@@H]1Cc3ccc(O)c(OC)c3CN1CC2` [l-SPD, l-Stepholidine], the side effects result in data set [1] (schizophrenia) is given as “few side effects”. The “activity in the treatment of schizophrenia” value in data set [1] is reported as “favorable activity”.

One may read the inhibition as the change of the read-out against control, counted positive when it falls. Take `COCCOCCOCC(=O)Oc1cc2c(cc1OC)CCN1Cc3c(c(Cl)cc(OC)c3OC(=O)COCCOCCOC)CC21` (stereo not drawn) [Example 42, 2,9-bis-{2-[2-(2-methoxy-ethoxy)-ethoxy]-acetoxy-}3,10-dimethoxy-12-chloro-5,8,13,13a-tetrahydro-6H-dibenzo[a,g]quinolizine]: the inhibition constant Ki at dopamine D1 receptor was 35.4 ± 4.4 nM; at dopamine D2 receptor, 14900 ± 200 nM. In addition, the figures for the inhibition at 10 µM at dopamine D1 receptor and at dopamine D2 receptor were 96.2% and 39.7%, respectively.

In turn, `COc1cc2c(cc1OC(C)=O)C1Cc3c(Cl)cc(OC)c(OC(C)=O)c3CN1CC2` (single isomer, unassigned; (-)) [Example 47, (−)-2,9-diacetoxy-3,10-dimethoxy-12-chloro-5,8,13,13a-tetrahydro-6H-dibenzo[a,g]quinolizine] had an immobility time in the data set on mice of 54.9 ± 19 s. Also, the inhibition at 10 µM came to 100% on dopamine D1 receptor and 77.4% at dopamine D2 receptor.

For `COc1cc2c(cc1OC(C)=O)C1Cc3ccc(OC)c(OC(C)=O)c3CN1CC2` (stereo not drawn) [Example 34, 2,9-diacetoxy-3,10-dimethoxy-5,8,13,13a-tetrahydro-6H-dibenzo[a,g]quinolizine], on dopamine D1 receptor, the Ki is 51.8 ± 32.2 nM and testing at 10 µM gave an inhibition of 99.4%. On dopamine D2 receptor, the Ki is 10600 ± 2600 nM and testing at 10 µM gave an inhibition of 90.7%.

For orientation: melting point means the temperature of the solid-liquid transition. `COc1cc2c(cc1OCc1ccccc1)C1Cc3c(Cl)cc(OC)c(OCCOCCO)c3CN1CC2` (stereo not drawn) [Example 18, 2-benzyloxy-3,10-dimethoxy-9-[2-(2-hydroxy-ethoxy)-ethoxy]-12-chloro-5,8,13,13a-tetrahydro-6H-dibenzo[a,g]quinolizine] returned a melting point of 122 °C.

On to `COc1cc2c(cc1O)C1Cc3c(Cl)cc(OC)c(OC(C)=O)c3CN1CC2` (single isomer, unassigned; (-)) [Example 50, (−)-2-hydroxy-3,10-dimethoxy-9-acetoxy-12-chloro-5,8,13,13a-tetrahydro-6H-dibenzo[a,g]quinolizine], for which the inhibition at 10 µM at dopamine D1 receptor was 100%. Besides, the “Inhibition(%) for D2” value at dopamine D2 receptor worked out at 58.5%.

As to `COc1cc2c(cc1O)C1Cc3c(Cl)cc(OC)c(OCCO)c3CN1CC2` (stereo not drawn) [Example 17, 2-hydroxy-3,10-dimethoxy-9-(2-hydroxy-ethoxy)-12-chloro-5,8,13,13a-tetrahydro-6H-dibenzo[a,g]quinolizine], the results for the inhibition at 10 µM at dopamine D1 receptor and at dopamine D2 receptor were 97.9% and 57.4%, respectively.

For the compound `CC(=O)O.COc1cc2c(cc1OC(C)=O)C1Cc3c(Cl)cc(OC)c(OC(C)=O)c3CN1CC2` (stereo not drawn) [Example 8, 2,9-diacetoxy-3,10-dimethoxy-12-chloro-5,8,13,13a-tetrahydro-6H-dibenzo[a,g]quinolizine acetate], the “Inhibition(%) for D1” value at dopamine D1 receptor is on record as 100.0%. In addition, the “Inhibition(%) for D2” value at dopamine D2 receptor is given as 93.8%.

With `Oc1cc2c(cc1O)C1Cc3c(Cl)cc(O)c(O)c3CN1CC2` (stereo not drawn) [Example 44, 2,3,9,10-tetrahydroxy-12-chloro-5,8,13,13a-tetrahydro-6H-dibenzo[a,g]quinolizine], the inhibition at 10 µM was found to be 100% at dopamine D1 receptor and 93.3% at dopamine D2 receptor. The “effect in 6-OHDA-lesioned rats model” value in the data set with 6-OHDA-lesioned rats is “positive effects”.

For `COc1cc2c(cc1OCc1ccccc1)C1Cc3c(Cl)cc(OC)c(OC(=O)[C@@H](N)Cc4ccccc4)c3CN1CC2` (stereo partly drawn) [Example 23, 2-benzyloxy-3,10-dimethoxy-9-phenylalanyloxy-12-chloro-5,8,13,13a-tetrahydro-6H-dibenzo[a,g]quinolizine], the inhibition at 10 µM is 77.5% on dopamine D1 receptor and 44% at dopamine D2 receptor.

`COc1cc2c(cc1OC(C)=O)C1Cc3ccc(OC(C)=O)c(OC)c3CN1CC2` (single isomer, unassigned; (-)) [Example 48, (−)-2,10-diacetoxy-3,9-dimethoxy-5,8,13,13a-tetrahydro-6H-dibenzo[a,g]quinolizine]: in the data set with 6-OHDA-lesioned rats, the “effect in 6-OHDA-lesioned rats model” value is recorded as “positive effects”.

Take `COc1cc(F)c2c(c1OC)CN1CCc3cc4c(cc3C1C2)OCO4` (stereo not drawn) [Example 63, 2,3-methylenedioxyl-9,10-dimethoxy-12-fluoro-5,8,13,13a-tetrahydro-6H-dibenzo[a,g]quinolizine]: the “Inhibition(%) for D1” value at dopamine D1 receptor was 95.2%.

For the compound `CCOC(=O)Oc1c(OC)cc(Cl)c2c1CN1CCc3cc(OC)c(O)cc3C1C2` (stereo not drawn) [Example 21, 2-hydroxy-3,10-dimethoxy-9-ethoxycarbonyloxy-12-chloro-5,8,13,13a-tetrahydro-6H-dibenzo[a,g]quinolizine], at dopamine D1 receptor, the Ki is 2.6 ± 0.7 nM and testing at 10 µM gave an inhibition of 100%. For the same compound, the inhibition at 10 µM on dopamine D2 receptor stood at 100%.

As to `COc1cc2c(cc1O)C1Cc3c(Cl)cc(OC)c(OC(C)=O)c3CN1CC2` (stereo not drawn) [Example 7, 2-hydroxy-3,10-dimethoxy-9-acetoxy-12-chloro-5,8,13,13a-tetrahydro-6H-dibenzo[a,g]quinolizine], at dopamine D1 receptor, the Ki was 10.7 ± 1 nM and the “Inhibition(%) for D1” value came to 100%. Besides, on dopamine D2 receptor, the inhibition constant (Ki) is 6900 ± 1500 nM and the “Inhibition(%) for D2” value amounted to 100.0%. In addition, the “effect in 6-OHDA-lesioned rats model” value with 6-OHDA-lesioned rats is given as “positive effects”.

For `COCCOCCOCC(=O)Oc1c(OC)cc(Cl)c2c1CN1CCc3cc(OC)c(O)cc3C1C2` (stereo not drawn) [Example 43, 2-hydroxy-3,10-dimethoxy-9-{2-[2-(2-methoxy-ethoxy)-ethoxy]-acetoxy-}-12-chloro-5,8,13,13a-tetrahydro-6H-dibenzo[a,g]quinolizine], the inhibition constant Ki at dopamine D1 receptor was 404 ± 188 nM.
